# Laboratory results published in patent US6100247A, “Method of treating diabetic neuropathy” (BioNumerik Pharmaceuticals, Inc., priority 1999, dated 2000).
# What was measured:
# [1] = target: T1, aldose reductase (human recombinant, expressed in SF 9 cells) (Homo sapiens, UniProt P15121); test: Aldose reductase assay, reduction of glucose to sorbitol (NADPH oxidation, absorbance at 340 nm); format: biochemical; settings: Lineweaver Burk plots nearly parallel; glucose and glyceraldehyde substrates
# T1 construct: host or cells: SF 9 cells
# Description: Aldose reductase assays were as described in Nishimura C., Yamaoka T., Mizutani M., Yamashita K., Akera T., Tanimoto T., Purification And Characterization Of The Recombinant Human Aldose Reductase Expressed In Baculovirus System, Biochem. Biophys. Acta, Jun. 24, 1991; 1078(2):171-8.
# Briefly, Dimesna (0-20 μM) was incubated at 37° C. with aldose reductase (0.0016 units, human recombinant, expressed in SF 9 cells) and NADPH (0.15 mM) in sodium phosphate buffer (100 mM, pH 6.2). To initiate assays, glucose (10-150 mM) was added to reactions and the decrease in absorbance at 340 nm (oxidation of NADPH) was monitored. Assays were run in duplicate or triplicate. Slopes were calculated using Varian-Cary software package 2.0 and averaged. In all cases errors were 4% or less. Lineweaver Burk analysis (Enzyme Kinetics, version 1.61) was used to calculate inhibition constants.
# [2] = system: mice; settings: mouse, in vivo; cited from earlier work
# [3] = system: dogs; settings: dog, in vivo; cited from earlier work
# [4] = system: humans; settings: in vivo; cited from earlier work
compound,measurement,setting,value
O=S(=O)([O-])CCSSCCS(=O)(=O)[O-].[Na+].[Na+],Mode of inhibition of the aldose reductase reaction,[1],uncompetitive inhibition
same,Adverse effects after intravenous administration,[2],no adverse effects
same,Adverse effects after intravenous administration,[3],no adverse effects
same,Adverse effects after administration to humans,[4],no adverse effects
